This is an account of results in patent publication US20230159445A1, “STAT INHIBITORY COMPOUNDS AND COMPOSITIONS” (JANPIX LIMITED, priority 2020, published 2023).

Usually IC50 stands for the midpoint of a concentration-inhibition curve.

For the first assay, the system named is MV4-11 cells. The assay is described as follows: MV4-11 Cell Cytotoxicity Assay (CellTiter-Blue, 72 h). Type of assay: cell-based, human. As to conditions: Homo sapiens, MV4-11; MV-4-11 cells. As for the experimental part:
In some embodiments, the potency of the STAT5 inhibitors are evaluated by an in vitro assay such as MV4-11 Cell Cytotoxicity Assay. […] 10,000 cells were plated per well in 96-well flat-bottom sterile culture plates with low-evaporation lids. After 24 h, inhibitors and a vehicle control (0.5% DMSO) were added and the cells were incubated for 72 h at 37° C. in 5% CO2. Inhibitors were examined in triplicate at a maximal concentration of 50 μM, followed by 1:2 dilutions in subsequent wells (25, 12.5, 6.25, 3.125, 1.5625, 0.78125, 0.390625, 0.195313 and 0.097656 μM). After 72 h, the wells were treated with CellTiter-Blue® (20 μL/well), and the plates were incubated using standard cell culture conditions for 1 hour. Fluorescence was measured at 560/590 nm.
A general note: Alamar Blue is a resazurin reagent that responds to reducing activity.
Turning to `COc1cc(C(=O)O)ccc1N(Cc1cc(C2CC2)cc(C(C)(C)C)c1)C(=O)CN(Cc1ccc(Cl)cc1F)S(=O)(=O)c1c(F)c(F)c(F)c(F)c1F` [Compound 1175, 4-(N-(3-(tert-butyl)-5-cyclopropylbenzyl)-2-(N-(4-chloro-2-fluorobenzyl)-(2,3,4,5,6-pentafluorophenyl)sulfon-amido)acetamido)-3-methoxybenzoic acid], the IC50 was in the range of 0.316 to 1 µM.

With `COc1ccc(CN(CC(=O)N(Cc2cc(C3CC3)cc(C(C)(C)C)c2)c2ccc(C(=O)O)c(O)c2)S(=O)(=O)c2c(F)c(F)c(F)c(F)c2F)cc1` [Compound 1026, 4-(N-(3-(tert-butyl)-5-cyclopropylbenzyl)-2-(N-(4-methoxybenzyl)-(2,3,4,5,6-pentafluoro-phenyl)sulfonamido)acetamido)-2-hydroxybenzoic acid], the IC50 lay in the range of 3.16 to 100 µM.

`Cc1cc(C(=O)O)cc(C)c1N(Cc1cc(C2CC2)cc(C(C)(C)C)c1)C(=O)CN(Cc1ccc(F)cc1Cl)S(=O)(=O)c1c(F)c(F)c(F)c(F)c1F` [Compound 1187, 4-(N-(3-(tert-butyl)-5-cyclopropylbenzyl)-2-(N-(2-chloro-4-fluorobenzyl)-(2,3,4,5,6-pentafluorophenyl)sulfon-amido)acetamido)-3,5-dimethylbenzoic acid] displayed an IC50 of 0.316 to 1 µM.

As for `Cc1cc(C(=O)O)cc(C)c1N(Cc1cc(C2CC2)cc(N2CCCC2)c1)C(=O)CN(Cc1ccc(F)cc1Cl)S(=O)(=O)c1c(F)c(F)c(F)c(F)c1F` [Compound 1206, 4-(2-(N-(2-chloro-4-fluorobenzyl)-(2,3,4,5,6-pentafluorophenyl)sulfon-amido)-N-(3-cyclopropyl-5-(pyrrolidin-1-yl)benzyl)acetamido)-3,5-dimethylbenzoic acid], the IC50 lay within 0.316 to 1 µM.

As for `COc1cc(C(=O)O)ccc1N(Cc1cc(C2CC2)cc(C(C)(C)C)c1)C(=O)CN(Cc1ccc(F)nc1Cl)S(=O)(=O)c1c(F)c(F)c(F)c(F)c1F` [Compound 1096, 4-(N-(3-(tert-butyl)-5-cyclopropylbenzyl)-2-(N-((2-chloro-6-fluoropyridin-3-yl)methyl)-(2,3,4,5,6-pentafluorophenyl)sulfon-amido)acetamido)-3-methoxybenzoic acid], the IC50 was 1e-05 to 0.316 µM.

Consider `COc1cc(CN(CC(=O)N(Cc2cc(C3CC3)cc(C(C)(C)C)c2)c2ccc(C(=O)O)c(O)c2)S(=O)(=O)c2c(F)c(F)c(F)c(F)c2F)ccc1F` [Compound 1028, 4-(N-(3-(tert-butyl)-5-cyclopropylbenzyl)-2-(N-(4-fluoro-3-methoxybenzyl)-(2,3,4,5,6-pentafluoro-phenyl)sulfonamido)acetamido)-2-hydroxybenzoic acid], for which the IC50 lay within 1 to 3.16 µM.

For the compound `COc1cc(C(N)=O)ccc1N(Cc1cc(C2CC2)cc(C(C)(C)C)c1)C(=O)CN(Cc1ccccc1F)S(=O)(=O)c1c(F)c(F)c(F)c(F)c1F` [Compound 1114, 4-(N-(3-(tert-butyl)-5-cyclopropylbenzyl)-2-(N-(2-fluorobenzyl)-(2,3,4,5,6-pentafluoro-phenyl)sulfonamido)acetamido)-3-methoxybenzamide], the IC50 fell in the range of 0.316 to 1 µM.

As to `CN(C)c1ccc(C(=O)O)cc1N(Cc1cc(C2CC2)cc(C(C)(C)C)c1)C(=O)CN(Cc1ccccc1F)S(=O)(=O)c1c(F)c(F)c(F)c(F)c1F` [Compound 1120, 3-(N-(3-(tert-butyl)-5-cyclopropylbenzyl)-2-(N-(2-fluorobenzyl)-(2,3,4,5,6-pentafluoro-phenyl)sulfonamido)acetamido)-4-(dimethylamino) benzoic acid], the IC50 was in the range of 0.316 to 1 µM.

As to `COc1cc(C(=O)O)ccc1N(Cc1nc2ccccc2n1C)C(=O)CN(Cc1cnccc1C(F)(F)F)S(=O)(=O)c1c(F)c(F)c(F)c(F)c1F` [Compound 1158, 3-methoxy-4-(N-((1-methyl-1H-benzo[d]imidazol-2-yl)methyl)-2-(N-((4-(trifluoromethyl)pyridin-3-yl)methyl)-(2,3,4,5,6-pentafluoro-phenyl)sulfonamido)acetamido)benzoic acid], the IC50 was in the range of 3.16 to 100 µM.

In the case of `CC(C)(C)c1cc(CN(C(=O)CN(Cc2ccc(Cl)cc2)S(=O)(=O)c2c(F)c(F)c(F)c(F)c2F)c2ccc(C(=O)NO)cc2)cc(C2CC2)c1` [Compound 1032, 4-(N-(3-(tert-butyl)-5-cyclopropylbenzyl)-2-(N-(4-chlorobenzyl)-(2,3,4,5,6-pentafluorophenyl)sulfon-amido)acetamido)-N-hydroxybenzamide], the IC50 lay in the range of 3.16 to 100 µM.

Compound `CC(C)(C)c1cc(CN(C(=O)CN(Cc2ccc(Cl)cc2)S(=O)(=O)c2c(F)c(F)c(F)c(F)c2F)c2ccc(C(C)(C)C(=O)O)cc2)cc(C2CC2)c1` [Compound 1019, 2-(4-(N-(3-(tert-butyl)-5-cyclopropylbenzyl)-2-(N-(4-chlorobenzyl)-(2,3,4,5,6-pentafluorophenyl)sulfon-amido)acetamido)phenyl)-2-methylpropanoic acid] registered an IC50 of 1 to 3.16 µM.

Compound `COc1cc(C(=O)O)ccc1N(Cc1cc(C2CC2)cc(C(C)(C)C)c1)C(=O)CN(Cc1cncc(C(F)(F)F)c1)S(=O)(=O)c1c(F)c(F)c(F)c(F)c1F` [Compound 1131, 4-(N-(3-(tert-butyl)-5-cyclopropylbenzyl)-2-(N-((5-(trifluoromethyl)pyridin-3-yl)methyl)-(2,3,4,5,6-pentafluoro-phenyl)sulfonamido)acetamido)-3-methoxybenzoic acid] came in with a half-inhibitory concentration (IC50) of 0.316 to 1 µM.

`CN(C)CCOc1cc(C(=O)O)ccc1N(Cc1cc(C2CC2)cc(C(C)(C)C)c1)C(=O)CN(Cc1ccccc1F)S(=O)(=O)c1c(F)c(F)c(F)c(F)c1F` [Compound 1101, 4-(N-(3-(tert-butyl)-5-cyclopropylbenzyl)-2-(N-(2-fluorobenzyl)-(2,3,4,5,6-pentafluoro-phenyl)sulfonamido)taceamido)-3-(2-(dimethylamino)ethoxy) benzoic acid] registered an IC50 of 3.16 to 100 µM.

Regarding `CN(C)c1cc(C(=O)O)ccc1N(Cc1cc(C2CC2)cc(C(C)(C)C)c1)C(=O)CN(Cc1c(F)cc(F)cc1F)S(=O)(=O)c1c(F)c(F)c(F)c(F)c1F` [Compound 1125, 4-(N-(3-(tert-butyl)-5 - cyclopropylbenzyl)-2-(N-(2,4,6-trifluorobenzyl)-(2,3,4,5,6-pentafluoro-phenyl)sulfonamido)acetamido)-3-(dimethylamino) benzoic acid], the concentration for half-maximal inhibition (IC50) lay in the range of 0.316 to 1 µM.

`CC(C)(C)c1cc(CN(C(=O)CN(Cc2ccccc2F)S(=O)(=O)c2c(F)c(F)c(F)c(F)c2F)c2ccc(C(=O)O)cc2NS(C)(=O)=O)cc(C2CC2)c1` [Compound 1059, 4-(N-(3-(tert-butyl)-5-cyclopropylbenzyl)-2-(N-(2-fluorobenzyl)-(2,3,4,5,6-pentafluoro-phenyl)sulfonamido)acetamido)-3-(methylsulfonamido) benzoic acid] showed an IC50 of 3.16 to 100 µM.

In turn, `CC(C)(C)c1cc(CN(C(=O)CN(Cc2ccc(Cl)cc2)S(=O)(=O)c2c(F)c(F)c(F)c(F)c2F)c2ccc(O)c(C(=O)O)c2)cc(C2CC2)c1` [Compound 1018, 5-(N-(3-(tert-butyl)-5-cyclopropylbenzyl)-2-(N-(4-chlorobenzyl)-(2,3,4,5,6-pentafluorophenyl)sulfon-amido)acetamido)-2-hydroxybenzoic acid] gave an IC50 of 3.16 to 100 µM.

Still in this assay, the particulars now being: Homo sapiens; MV4-11 cells, 72 h, CellTiter-Blue; read-out: IC50- MV-4-11.
For `CC(C)COc1cc(CN(C(=O)CN(Cc2ccc(Cl)cc2)S(=O)(=O)c2c(F)c(F)c(F)c(F)c2F)c2ccc(C(=O)O)c(O)c2)cc(OCC(C)C)c1` [Compound 2007, 4-(2-(N-(4-chlorobenzyl)-(2,3,4,5,6-pentafluorophenyl)sulfon-amido)-N-(3,5-diisobutoxybenzyl)acetami-do)-2-hydroxybenzoic acid], the IC50 is 3.16 to 100 µM.

Regarding `CC(C)(C)c1cc(N(C(=O)CN(Cc2ccc(Cl)cc2)S(=O)(=O)c2c(F)c(F)c(F)c(F)c2F)c2ccc(C(=O)O)c(O)c2)cc(C(C)(C)C)c1` [Compound 2014, 4-(2-(N-(4-chlorobenzyl)-(2,3,4,5,6-pentafluorophenyl)sulfon-amido)-N-(3,5-di-tert-butylphenyl)acetamido)-2-hydroxybenzoic acid], the IC50 was in the range of 1 to 3.16 µM.

`CC1(C)OC(=O)c2ccc(N(Cc3cc(C4CC4)cc(C(C)(C)C)c3)C(=O)CN(Cc3ccc(Cl)cc3)S(=O)(=O)c3c(F)c(F)c(F)c(F)c3F)cc2O1` [Compound 2022, N-(3-(tert-butyl)-5-cyclopropylbenzyl)-2-(N-(4-chlorobenzyl)-(2,3,4,5,6-pentafluorophenyl)sulfon-amido)-N-(2,2-dimethyl-4-oxo-4H-benzo[d][1,3]dioxin-7-yl)acetamide]: the IC50 was in the range of 3.16 to 100 µM.

For `O=C(O)c1ccc(N(Cc2ccc3c(c2)OCCO3)C(=O)CN(Cc2ccc(Cl)cc2)S(=O)(=O)c2c(F)c(F)c(F)c(F)c2F)cc1O` [Compound 2006, 4-(2-(N-(4-chlorobenzyl)-(2,3,4,5,6-pentafluorophenyl)sulfon-amido)-N-((2,3-dihydrobenzo[b][1,4]dioxin-6-yl)methyl)acetamido)-2-hydroxybenzoic acid], the IC50 lay in the range of 3.16 to 100 µM.

As to `COc1cc(C(=O)O)ccc1N(C)C(=O)CN(Cc1ccccc1C(F)(F)F)S(=O)(=O)c1c(F)c(F)c(F)c(F)c1F` [Compound 2018, 3-methoxy-4-(N-methyl-2-(N-(2-(trifluoromethyl)benzyl)-(2,3,4,5,6-pentafluoro-phenyl)sulfonamido)acetami-do)benzoic acid], the IC50 lay in the range of 1 to 3.16 µM.

Staying with this assay, now noted: MV4-11 cells, 72 h, CellTiter-Blue; read-out: IC50- MV-4-11.
As to `O=C(O)c1ccc(N(Cc2cc(Cl)cc(Br)c2)C(=O)CN(Cc2ccc(Cl)cc2)S(=O)(=O)c2c(F)c(F)c(F)c(F)c2F)cc1O` [Compound 2013, 4-(N-(3-bromo-5-chlorobenzyl)-2-(N-(4-chlorobenzyl)-(2,3,4,5,6-pentafluorophenyl)sulfon-amido)acetamido)-2-hydroxybenzoic acid], the IC50 was 3.16 to 100 µM.
